# Reference: patent publication US6737383B1, “Herbicidal oxadiazolidines” (priority 1999, dated 2004)
# Tests used:
# smallflower flatsedge = assay: Test B flood test smallflower flatsedge; format: in vivo, Cyperus difformis
# Outline: (§1)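 Each value is a visual injury score relative to controls, with 10 meaning complete control and 0 no effect. Evaluation took place twelve to sixteen days after the 2-leaf-stage plants were treated and kept in the greenhouse.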
# purple nutsedge = assay: Test B pre/postemergence purple nutsedge; format: in vivo, Cyperus rotundus
# Outline: (§2)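 Response is a visual 0-to-10 score relative to untreated plants, where 0 means no effect and 10 means complete control, taken twelve to sixteen days after application. Treatments went onto soil at planting and onto foliage of 1- to 4-leaf plants, using a surfactant-containing non-phytotoxic solvent.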
# corn = assay: Test B pre/postemergence corn; format: in vivo, Zea mays
# Outline: as §2
# velvetleaf = assay: Test B pre/postemergence velvetleaf; format: in vivo, Abutilon theophrasti
# Outline: as §2
# morningglory = assay: Test B pre/postemergence morningglory; format: in vivo, Ipomoea hederacea
# Outline: as §2
# duck salad = assay: Test B flood test duck salad; format: in vivo, Heteranthera limosa
# Outline: as §1
# rape = assay: Test B pre/postemergence rape; format: in vivo, Brassica napus
# Outline: as §2
# cocklebur = assay: Test B pre/postemergence cocklebur; format: in vivo, Xanthium strumarium
# Outline: as §2
# wild oat = assay: Test B pre/postemergence wild oat; format: in vivo, Avena fatua
# Outline: as §2
# sugar beet = assay: Test B pre/postemergence sugar beet; format: in vivo, Beta vulgaris
# Outline: as §2
# crabgrass = assay: Test B pre/postemergence crabgrass; format: in vivo, Digitaria sanguinalis
# Outline: as §2
# pigweed = assay: Test B pre/postemergence pigweed; format: in vivo, Amaranthus retroflexus
# Outline: as §2
# soybean = assay: Test B pre/postemergence soybean; format: in vivo, Glycine max
# Outline: as §2
# bedstraw = assay: Test B pre/postemergence bedstraw; format: in vivo, Galium aparine
# Outline: as §2
# rice = assay: Test B flood test rice; format: in vivo, Oryza sativa
# Outline: as §1
# blackgrass = assay: Test B pre/postemergence blackgrass; format: in vivo, Alopecurus myosuroides
# Outline: as §2
# bamyardgrass = assay: Test B flood test barnyardgrass; format: in vivo, Echinochloa crus-galli
# Outline: as §1
# surinam grass = assay: Test B pre/postemergence surinam grass; format: in vivo, Brachiaria decumbens
# Outline: as §2
# wheat = assay: Test B pre/postemergence wheat; format: in vivo, Triticum aestivum
# Outline: as §2
# giant foxtail = assay: Test B pre/postemergence giant foxtail; format: in vivo, Setaria faberii
# Outline: as §2
# [1] = Rate 62 g/ha, flood test species, Pre-emergence, visual evaluation after twelve to sixteen days
# [2] = Rate 125 g/ha, under heading Pre-emergence, flood test species, visual evaluation after twelve to sixteen days
# [3] = Rate 250 g/ha, Pre-emergence (flood test species), scale 0 to 10, 0 is no effect, 10 is complete control
# [4] = Rate 500 g/ha, Pre-emergence section of Table B, 0 to 10 scale (0 no effect, 10 complete control)
# [5] = Postemergence, Rate 62 g/ha, scale 0 to 10, 0 is no effect, 10 is complete control
# [6] = Postemergence, Rate 125 g/ha, scale of 0 to 10 where 0 is no effect and 10 is complete control
# [7] = Postemergence, Rate 250 g/ha, scale of 0 to 10, 0 is no effect, 10 is complete control
# [8] = Postemergence, Rate 500 g/ha, scale of 0 to 10 where 0 is no effect and 10 is complete control
# [9] = Preemergence, Rate 62 g/ha, scale 0 to 10 (0 no effect, 10 complete control)
# [10] = Preemergence, Rate 125 g/ha, scale of 0 to 10 where 0 is no effect and 10 is complete control
# [11] = Preemergence, Rate 500 g/ha, scale of 0 to 10 where 0 is no effect and 10 is complete control
compound,measurement,setting,value
CCC(C)n1c(=O)on(C(=O)N(c2ccccc2)C(C)C)c1=O (stereo not drawn) [Compound 612],"Plant response rating, S. Flatsedge (0 to 10 scale, 0 is no effect, 10 is complete control)",smallflower flatsedge; [1],0
same,"S. Flatsedge plant response rating (0 to 10 scale, 0 is no effect, 10 is complete control)",smallflower flatsedge; [2],0
same,S. Flatsedge plant response rating,smallflower flatsedge; [3],0
same,S. Flatsedge plant response rating,smallflower flatsedge; [4],0
same,"Plant response rating, Nutsedge",purple nutsedge; [5],0
same,"Plant response rating, Nutsedge",purple nutsedge; [6],0
same,Nutsedge plant response rating,purple nutsedge; [7],0
same,"Plant response rating, Nutsedge",purple nutsedge; [8],2
same,Nutsedge plant response rating,purple nutsedge; [9],0
same,Nutsedge plant response rating,purple nutsedge; [10],0
same,"Plant response rating, Nutsedge",purple nutsedge; [11],3
same,"Plant response rating, Corn",corn; [5],0
same,"Plant response rating, Corn",corn; [6],0
same,Corn plant response rating,corn; [7],0
same,"Plant response rating, Corn",corn; [8],0
same,Corn plant response rating,corn; [9],0
same,Corn plant response rating,corn; [10],3
same,Corn plant response rating (0 to 10 scale),"corn; Preemergence, Rate 250 g/ha",8
same,"Plant response rating, Corn",corn; [11],9
same,"Plant response rating, Velvetleaf",velvetleaf; [5],2
same,"Plant response rating, Velvetleaf",velvetleaf; [6],3
same,Velvetleaf plant response rating,velvetleaf; [7],3
same,"Plant response rating, Velvetleaf",velvetleaf; [8],6
same,Velvetleaf plant response rating,velvetleaf; [9],6
same,Velvetleaf plant response rating,velvetleaf; [10],7
same,"Plant response rating, Velvetleaf",velvetleaf; [11],8
same,"Plant response rating, Morningglory",morningglory; [5],5
same,"Plant response rating, Morningglory",morningglory; [6],8
same,Morningglory plant response rating,morningglory; [7],8
same,"Plant response rating, Morningglory",morningglory; [8],10
same,Morningglory plant response rating,morningglory; [9],0
same,Morningglory plant response rating,morningglory; [10],0
same,"Plant response rating, Morningglory",morningglory; [11],10
same,"Plant response rating, Ducksalad (0 to 10 scale, 0 is no effect, 10 is complete control)",duck salad; [1],0
same,"Ducksalad plant response rating (0 to 10 scale, 0 is no effect, 10 is complete control)",duck salad; [2],0
same,Ducksalad plant response rating,duck salad; [3],0
same,Ducksalad plant response rating,duck salad; [4],0
same,"Plant response rating, Rape",rape; [5],0
same,"Plant response rating, Rape",rape; [6],0
same,Rape plant response rating,rape; [7],0
same,"Plant response rating, Rape",rape; [8],7
same,Rape plant response rating,rape; [9],0
same,Rape plant response rating,rape; [10],3
same,"Plant response rating, Rape",rape; [11],10
same,"Plant response rating, Cocklebur",cocklebur; [5],0
same,"Plant response rating, Cocklebur",cocklebur; [6],0
same,Cocklebur plant response rating,cocklebur; [7],0
same,"Plant response rating, Cocklebur",cocklebur; [8],2
same,Cocklebur plant response rating,cocklebur; [9],0
same,Cocklebur plant response rating,cocklebur; [10],0
same,Cocklebur plant response rating (0 to 10 scale),"cocklebur; Preemergence, Rate 250 g/ha",0
same,"Plant response rating, Cocklebur",cocklebur; [11],0
same,"Plant response rating, Wild oats",wild oat; [5],0
same,"Plant response rating, Wild oats",wild oat; [6],6
same,Wild oats plant response rating,wild oat; [7],6
same,"Plant response rating, Wild oats",wild oat; [8],9
same,Wild oats plant response rating,wild oat; [9],5
same,Wild oats plant response rating,wild oat; [10],9
same,"Plant response rating, Wild oats",wild oat; [11],10
same,"Plant response rating, Sugarbeets",sugar beet; [5],0
same,"Plant response rating, Sugarbeets",sugar beet; [6],0
same,Sugarbeets plant response rating,sugar beet; [7],0
same,"Plant response rating, Sugarbeets",sugar beet; [8],1
same,Sugarbeets plant response rating,sugar beet; [9],3
same,Sugarbeets plant response rating,sugar beet; [10],5
same,"Plant response rating, Sugarbeets",sugar beet; [11],7
same,"Plant response rating, Crabgrass",crabgrass; [5],4
same,"Plant response rating, Crabgrass",crabgrass; [6],8
same,Crabgrass plant response rating,crabgrass; [7],9
same,"Plant response rating, Crabgrass",crabgrass; [8],10
same,Crabgrass plant response rating,crabgrass; [9],10
same,Crabgrass plant response rating,crabgrass; [10],10
same,"Plant response rating, Crabgrass",crabgrass; [11],10
same,"Plant response rating, Redroot pigweed",pigweed; [5],0
same,"Plant response rating, Redroot pigweed",pigweed; [6],2
same,Redroot pigweed plant response rating,pigweed; [7],4
same,"Plant response rating, Redroot pigweed",pigweed; [8],7
same,Redroot pigweed plant response rating,pigweed; [9],8
same,Redroot pigweed plant response rating,pigweed; [10],10
same,"Plant response rating, Redroot pigweed",pigweed; [11],10
same,"Plant response rating, Soybean",soybean; [5],4
same,"Plant response rating, Soybean",soybean; [6],5
same,Soybean plant response rating,soybean; [7],7
same,"Plant response rating, Soybean",soybean; [8],8
same,Soybean plant response rating,soybean; [9],0
same,Soybean plant response rating,soybean; [10],0
same,"Plant response rating, Soybean",soybean; [11],3
same,"Plant response rating, Bedstraw",bedstraw; [5],3
same,Bedstraw plant response rating,bedstraw; [7],6
same,"Plant response rating, Bedstraw",bedstraw; [8],9
same,Bedstraw plant response rating,bedstraw; [11],10
same,"Plant response rating, Rice (0 to 10 scale, 0 is no effect, 10 is complete control)",rice; [1],0
same,"Rice plant response rating (0 to 10 scale, 0 is no effect, 10 is complete control)",rice; [2],0
same,Rice plant response rating,rice; [3],0
same,Rice plant response rating,rice; [4],0
same,"Plant response rating, Blackgrass",blackgrass; [5],7
same,"Plant response rating, Blackgrass",blackgrass; [6],9
same,Blackgrass plant response rating,blackgrass; [7],9
same,"Plant response rating, Blackgrass",blackgrass; [8],10
same,Blackgrass plant response rating,blackgrass; [9],8
same,Blackgrass plant response rating,blackgrass; [10],10
same,Blackgrass plant response rating (0 to 10 scale),"blackgrass; Preemergence, Rate 250 g/ha",10
same,Blackgrass plant response rating,blackgrass; [11],10
same,"Plant response rating, Barnyardgrass (0 to 10 scale, 0 is no effect, 10 is complete control)",bamyardgrass; [1],0
same,"Barnyardgrass plant response rating (0 to 10 scale, 0 is no effect, 10 is complete control)",bamyardgrass; [2],0
same,Barnyardgrass plant response rating,bamyardgrass; [3],0
same,Barnyardgrass plant response rating,bamyardgrass; [4],0
same,"Plant response rating, B. signalgrass",surinam grass; [5],1
same,"Plant response rating, B. signalgrass",surinam grass; [6],3
same,B. signalgrass plant response rating,surinam grass; [7],7
same,"Plant response rating, B. signalgrass",surinam grass; [8],9
same,B. signalgrass plant response rating,surinam grass; [9],4
same,B. signalgrass plant response rating,surinam grass; [10],7
same,"B. signalgrass plant response rating (0 to 10 scale, 0 is no effect, 10 is complete control)","surinam grass; Preemergence, Rate 250 g/ha",10
same,B. signalgrass plant response rating,surinam grass; [11],10
same,"Plant response rating, Wheat",wheat; [5],0
same,"Plant response rating, Wheat",wheat; [6],2
same,Wheat plant response rating,wheat; [7],2
same,"Plant response rating, Wheat",wheat; [8],5
same,Wheat plant response rating,wheat; [9],0
same,Wheat plant response rating,wheat; [10],3
same,"Plant response rating, Wheat",wheat; [11],8
same,"Plant response rating, Giant foxtail",giant foxtail; [5],7
same,"Plant response rating, Giant foxtail",giant foxtail; [6],9
same,Giant foxtail plant response rating,giant foxtail; [7],9
same,"Plant response rating, Giant foxtail",giant foxtail; [8],9
same,Giant foxtail plant response rating,giant foxtail; [9],10
same,Giant foxtail plant response rating,giant foxtail; [10],10
same,"Plant response rating, Giant foxtail",giant foxtail; [11],10
